Experimental data: patent EP2210885A1, “Substituted heteroarylpiperidine derivatives as melanocortin-4 receptor modulators” (Santhera Pharmaceuticals (Schweiz) AG, priority 2009, dated 2010)

Experiments:
hMC-4R [1] = molecular target: T1, hMC-4R (Homo sapiens, UniProt P32245); experiment: hMC-4R membrane binding assay (fluorescence polarization, competition with fluorescence labeled NDP-alpha-MSH); conditions: HEK293 cell membrane preparations expressing human melanocortin receptors; values grouped in classes
T1 construct: expressed in transfected cells; host or cells: HEK293 cell membrane preparations
T1 sequence (P32245 whole entry): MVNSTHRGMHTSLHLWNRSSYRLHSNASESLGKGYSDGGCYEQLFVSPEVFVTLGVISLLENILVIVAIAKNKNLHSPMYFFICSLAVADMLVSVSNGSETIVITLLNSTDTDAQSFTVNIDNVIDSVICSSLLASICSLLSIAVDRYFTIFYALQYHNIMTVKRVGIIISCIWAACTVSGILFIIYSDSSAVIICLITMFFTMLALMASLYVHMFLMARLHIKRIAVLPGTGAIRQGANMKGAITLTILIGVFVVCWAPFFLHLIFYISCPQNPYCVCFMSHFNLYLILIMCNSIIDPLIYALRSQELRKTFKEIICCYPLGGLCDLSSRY
Experimental: A membrane binding assay is used to identify competitive inhibitors of fluorescence labeled NDP-alpha-MSH binding to HEK293 cell membrane preparations expressing human melanocortin receptors.
The test compound or unlabeled NDP-alpha-MSH is dispensed at varying concentrations to a 384 well microtiter plate. Fluorescence labeled NDP-alpha-MSH is dispensed at a single concentration, followed by addition of membrane preparations. The plate is incubated for 5 h at room temperature.
The degree of fluorescence polarization is determined with a fluorescence polarization microplate reader.

hMC-4R [2] = molecular target: T1, hMC-4R; experiment: hMC-4R functional assay (membrane based cAMP fluorescence polarization, agonistic activity); format: biochemical; conditions: cAMP produced compared to stimulation with NDP-alpha-MSH
Experimental: Agonistic activity of human melanocortin receptors is determined in a homogeneous membrane based assay.
The test compound or unlabeled NDP-alpha-MSH is dispensed at varying concentrations to a 384 well microtiter plate. Membrane preparations from HEK293 cells expressing the human melanocortin receptors are added. After a short preincubation period, an appropriate amount of ATP, GTP and the cAMP antibody is added and the plate is further incubated before the fluorescence labeled cAMP conjugate is dispensed. The plate is incubated for 2 h at 4°C before it is read on a fluorescence polarization microplate reader. The amount of cAMP produced as a response to a test compound is compared to the production of cAMP resulting from stimulation with NDP-alpha-MSH.

SMILES	IC50 (hMC-4R [1]) [µM]	% activation functional assay (hMC-4R [2]) [%]
CCOC(=O)N[C@H](Cc1ccc(Cl)cc1Cl)C(=O)N1CCC(c2ncccc2OC[C@@H](CC)N(C)C)CC1 [Example 1]	≤ 0.1	-6
CCC(COc1cccnc1C1CCN(C(=O)C(Cc2ccc(Cl)cc2Cl)NC(=O)OC(C)C)CC1)N(C)C (stereo not drawn) [Example 2]	≤ 0.1	4
CC[C@H](COc1cccnc1C1CCN(C(=O)[C@@H](Cc2ccc(Cl)cc2Cl)NC(=O)OC2CCCC2)CC1)N(C)C [Example 3]	0.1 to 1	0
